# Bridge positions count the residues as written; N and C are the ends. Square brackets hold non-standard residues; d marks the D form. Peptide text beside a SMILES is read from it. * marks the point of attachment. Phe(4-CONH2) = NC(=O)c1ccc(C[C@H](N)C(=O)O)cc1; Phe(3,4-F2) = N[C@@H](Cc1ccc(F)c(F)c1)C(=O)O; Bip = N[C@@H](Cc1ccc(-c2ccccc2)cc1)C(=O)O; Phe(3-Me) = Cc1cccc(C[C@H](N)C(=O)O)c1; Phe(4-F) = N[C@@H](Cc1ccc(F)cc1)C(=O)O; Val(3-OH) = CC(C)(O)[C@H](N)C(=O)O; 4Pal = N[C@@H](Cc1ccncc1)C(=O)O; Cha = N[C@@H](CC1CCCCC1)C(=O)O; Gly(cPr) = N[C@H](C(=O)O)C1CC1; Carboxymethyl = O=C(O)C*; Nle = CCCC[C@H](N)C(=O)O; Orn = NCCC[C@H](N)C(=O)O; Aun = NCCCCCCCCCCC(=O)O; Dab = NCC[C@H](N)C(=O)O; Abu = CC[C@H](N)C(=O)O; Dap = NC[C@H](N)C(=O)O
# Target: T1, PD-1/PD-L1 interaction (PE-labeled human PD-L1-Ig binding to Jurkat cell line over-expressing human PD-1) (Homo sapiens, UniProt Q15116)
# T1 construct: expressed in transfected cells; host or cells: Jurkat
# Test: Jurkat-PD-1 Cell Binding High-Content Screening Assay (CBA)
# Format: cell-based
# Settings: Jurkat cell line over-expressing human PD-1; PE-labeled PD-L1-Ig 20 nM final; read-out: Jurkat hPD1-PDL1 IC50
# Procedure, shortened: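 Binding of fluorescent PD-L1-Ig (20 nM final) to Jurkat-PD-1 cells was measured by automated imaging after 1 h, following a 2 h compound pre-treatment at 37° C.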
# T1 sequence (Q15116 25-288): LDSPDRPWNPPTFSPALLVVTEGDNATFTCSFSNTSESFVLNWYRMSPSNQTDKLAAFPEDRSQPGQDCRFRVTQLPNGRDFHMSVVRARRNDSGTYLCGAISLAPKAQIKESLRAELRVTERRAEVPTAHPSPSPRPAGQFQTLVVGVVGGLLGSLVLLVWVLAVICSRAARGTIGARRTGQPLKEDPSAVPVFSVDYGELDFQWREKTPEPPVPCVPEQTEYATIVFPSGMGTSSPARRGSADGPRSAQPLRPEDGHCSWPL
row,SMILES,IC50 [µM]
1,Cc1cccc(C[C@@H]2NC(=O)[C@H](CC(=O)O)NC(=O)[C@H](Cc3ccc(OCC(=O)O)cc3)NC(=O)[C@H]([C@@H](C)O)NC(=O)CSC[C@@H](C(=O)N[C@@H](CCN)C(=O)NCCCCCCCCCCC(=O)O)NC(=O)[C@H](CO)NC(=O)[C@H](C(C)(C)O)NC(=O)[C@H](CC3CCCCC3)NC(=O)[C@H](CCN)NC(=O)[C@@H](CC(C)C)NC(=O)[C@H](CCCN)NC(=O)[C@H](Cc3ccc(OCC(=O)O)cc3)NC(=O)[C@H](Cc3ccc(-c4ccccc4)cc3)NC(=O)[C@H](Cc3ccc(OCC(=O)O)cc3)NC2=O)c1 [Compound 2208] ({CH2CO}-TY(Carboxymethyl)D[Phe(3-Me)]Y(Carboxymethyl)[Bip]Y(Carboxymethyl)[Orn][dL][Dab][Cha][Val(3-OH)]SC[Dab][Aun]-OH; thioether N-14),0.014
2,Cc1cccc(C[C@@H]2NC(=O)[C@H](CC(=O)O)NC(=O)[C@H](Cc3ccc(OCC(=O)O)cc3)NC(=O)CNC(=O)CSC[C@@H](C(=O)N[C@@H](CCN)C(=O)NCCCCCCCCCCC(=O)O)NC(=O)[C@H](CO)NC(=O)[C@H](C(C)(C)O)NC(=O)[C@H](CC3CCCCC3)NC(=O)[C@H](CCN)NC(=O)[C@@H](CC(C)C)NC(=O)[C@H](CCCN)NC(=O)[C@H](Cc3ccc(OCC(=O)O)cc3)NC(=O)[C@H](Cc3ccc(-c4ccccc4)cc3)NC(=O)[C@H](Cc3ccc(OCC(=O)O)cc3)NC2=O)c1 [Compound 2209] ({CH2CO}-GY(Carboxymethyl)D[Phe(3-Me)]Y(Carboxymethyl)[Bip]Y(Carboxymethyl)[Orn][dL][Dab][Cha][Val(3-OH)]SC[Dab][Aun]-OH; thioether N-14),0.0455
3,CCCC[C@@H]1NC(=O)CSC[C@@H](C(=O)N[C@@H](CCN)C(=O)NCCCCCCCCCCC(=O)O)NC(=O)[C@H](CO)NC(=O)[C@H](C(C)(C)O)NC(=O)[C@H](CC2CCCCC2)NC(=O)[C@H](CCN)NC(=O)[C@@H](CC(C)C)NC(=O)[C@H](CCCN)NC(=O)[C@H](Cc2ccc(OCC(=O)O)cc2)NC(=O)[C@H](Cc2ccc(-c3ccccc3)cc2)NC(=O)[C@H](Cc2ccc(OCC(=O)O)cc2)NC(=O)[C@H](Cc2cccc(C)c2)NC(=O)[C@H](CC(=O)O)NC(=O)[C@H](Cc2ccc(OCC(=O)O)cc2)NC1=O [Compound 2210] ({CH2CO}-[Nle]Y(Carboxymethyl)D[Phe(3-Me)]Y(Carboxymethyl)[Bip]Y(Carboxymethyl)[Orn][dL][Dab][Cha][Val(3-OH)]SC[Dab][Aun]-OH; thioether N-14),0.0088
4,Cc1cccc(C[C@@H]2NC(=O)[C@H](CC(=O)O)NC(=O)[C@H](Cc3ccc(OCC(=O)O)cc3)NC(=O)[C@H](C3CC3)NC(=O)CSC[C@@H](C(=O)N[C@@H](CCN)C(=O)NCCCCCCCCCCC(=O)O)NC(=O)[C@H](CO)NC(=O)[C@H](C(C)(C)O)NC(=O)[C@H](CC3CCCCC3)NC(=O)[C@H](CCN)NC(=O)[C@@H](CC(C)C)NC(=O)[C@H](CCCN)NC(=O)[C@H](Cc3ccc(OCC(=O)O)cc3)NC(=O)[C@H](Cc3ccc(-c4ccccc4)cc3)NC(=O)[C@H](Cc3ccc(OCC(=O)O)cc3)NC2=O)c1 [Compound 2211] ({CH2CO}-[Gly(cPr)]Y(Carboxymethyl)D[Phe(3-Me)]Y(Carboxymethyl)[Bip]Y(Carboxymethyl)[Orn][dL][Dab][Cha][Val(3-OH)]SC[Dab][Aun]-OH; thioether N-14),0.009
5,Cc1cccc(C[C@@H]2NC(=O)[C@H](CC(=O)O)NC(=O)[C@H](Cc3ccc(OCC(=O)O)cc3)NC(=O)[C@H](CCCN)NC(=O)CSC[C@@H](C(=O)N[C@@H](CCN)C(=O)NCCCCCCCCCCC(=O)O)NC(=O)[C@H](CO)NC(=O)[C@H](C(C)(C)O)NC(=O)[C@H](CC3CCCCC3)NC(=O)[C@H](CCN)NC(=O)[C@@H](CC(C)C)NC(=O)[C@H](CCCN)NC(=O)[C@H](Cc3ccc(OCC(=O)O)cc3)NC(=O)[C@H](Cc3ccc(-c4ccccc4)cc3)NC(=O)[C@H](Cc3ccc(OCC(=O)O)cc3)NC2=O)c1 [Compound 2212] ({CH2CO}-[Orn]Y(Carboxymethyl)D[Phe(3-Me)]Y(Carboxymethyl)[Bip]Y(Carboxymethyl)[Orn][dL][Dab][Cha][Val(3-OH)]SC[Dab][Aun]-OH; thioether N-14),0.01
6,Cc1cccc(C[C@@H]2NC(=O)[C@H](CC(=O)O)NC(=O)[C@H](Cc3ccc(OCC(=O)O)cc3)NC(=O)[C@H](CN)NC(=O)CSC[C@@H](C(=O)N[C@@H](CCN)C(=O)NCCCCCCCCCCC(=O)O)NC(=O)[C@H](CO)NC(=O)[C@H](C(C)(C)O)NC(=O)[C@H](CC3CCCCC3)NC(=O)[C@H](CCN)NC(=O)[C@@H](CC(C)C)NC(=O)[C@H](CCCN)NC(=O)[C@H](Cc3ccc(OCC(=O)O)cc3)NC(=O)[C@H](Cc3ccc(-c4ccccc4)cc3)NC(=O)[C@H](Cc3ccc(OCC(=O)O)cc3)NC2=O)c1 [Compound 2213] ({CH2CO}-[Dap]Y(Carboxymethyl)D[Phe(3-Me)]Y(Carboxymethyl)[Bip]Y(Carboxymethyl)[Orn][dL][Dab][Cha][Val(3-OH)]SC[Dab][Aun]-OH; thioether N-14),0.011
7,CC[C@@H]1NC(=O)CSC[C@@H](C(=O)N[C@@H](CCN)C(=O)NCCCCCCCCCCC(=O)O)NC(=O)[C@H](CO)NC(=O)[C@H](C(C)(C)O)NC(=O)[C@H](CC2CCCCC2)NC(=O)[C@H](CCN)NC(=O)[C@@H](CC(C)C)NC(=O)[C@H](CCCN)NC(=O)[C@H](Cc2ccc(OCC(=O)O)cc2)NC(=O)[C@H](Cc2ccc(-c3ccccc3)cc2)NC(=O)[C@H](Cc2ccc(OCC(=O)O)cc2)NC(=O)[C@H](Cc2cccc(C)c2)NC(=O)[C@H](CC(=O)O)NC(=O)[C@H](Cc2ccc(OCC(=O)O)cc2)NC1=O [Compound 2214] ({CH2CO}-[Abu]Y(Carboxymethyl)D[Phe(3-Me)]Y(Carboxymethyl)[Bip]Y(Carboxymethyl)[Orn][dL][Dab][Cha][Val(3-OH)]SC[Dab][Aun]-OH; thioether N-14),0.008
8,Cc1cccc(C[C@@H]2NC(=O)[C@H](CC(=O)O)NC(=O)[C@H](Cc3ccc(OCC(=O)O)cc3)NC(=O)[C@H](Cc3ccncc3)NC(=O)CSC[C@@H](C(=O)N[C@@H](CCN)C(=O)NCCCCCCCCCCC(=O)O)NC(=O)[C@H](CO)NC(=O)[C@H](C(C)(C)O)NC(=O)[C@H](CC3CCCCC3)NC(=O)[C@H](CCN)NC(=O)[C@@H](CC(C)C)NC(=O)[C@H](CCCN)NC(=O)[C@H](Cc3ccc(OCC(=O)O)cc3)NC(=O)[C@H](Cc3ccc(-c4ccccc4)cc3)NC(=O)[C@H](Cc3ccc(OCC(=O)O)cc3)NC2=O)c1 [Compound 2215] ({CH2CO}-[4Pal]Y(Carboxymethyl)D[Phe(3-Me)]Y(Carboxymethyl)[Bip]Y(Carboxymethyl)[Orn][dL][Dab][Cha][Val(3-OH)]SC[Dab][Aun]-OH; thioether N-14),0.0128
9,Cc1cccc(C[C@@H]2NC(=O)[C@H](CC(=O)O)NC(=O)[C@H](Cc3ccc(OCC(=O)O)cc3)NC(=O)[C@H](Cc3ccc(F)cc3)NC(=O)CSC[C@@H](C(=O)N[C@@H](CCN)C(=O)NCCCCCCCCCCC(=O)O)NC(=O)[C@H](CO)NC(=O)[C@H](C(C)(C)O)NC(=O)[C@H](CC3CCCCC3)NC(=O)[C@H](CCN)NC(=O)[C@@H](CC(C)C)NC(=O)[C@H](CCCN)NC(=O)[C@H](Cc3ccc(OCC(=O)O)cc3)NC(=O)[C@H](Cc3ccc(-c4ccccc4)cc3)NC(=O)[C@H](Cc3ccc(OCC(=O)O)cc3)NC2=O)c1 [Compound 2216] ({CH2CO}-[Phe(4-F)]Y(Carboxymethyl)D[Phe(3-Me)]Y(Carboxymethyl)[Bip]Y(Carboxymethyl)[Orn][dL][Dab][Cha][Val(3-OH)]SC[Dab][Aun]-OH; thioether N-14),0.0367
10,"Cc1cccc(C[C@@H]2NC(=O)[C@H](CC(=O)O)NC(=O)[C@H](Cc3ccc(OCC(=O)O)cc3)NC(=O)[C@H](Cc3ccc(F)c(F)c3)NC(=O)CSC[C@@H](C(=O)N[C@@H](CCN)C(=O)NCCCCCCCCCCC(=O)O)NC(=O)[C@H](CO)NC(=O)[C@H](C(C)(C)O)NC(=O)[C@H](CC3CCCCC3)NC(=O)[C@H](CCN)NC(=O)[C@@H](CC(C)C)NC(=O)[C@H](CCCN)NC(=O)[C@H](Cc3ccc(OCC(=O)O)cc3)NC(=O)[C@H](Cc3ccc(-c4ccccc4)cc3)NC(=O)[C@H](Cc3ccc(OCC(=O)O)cc3)NC2=O)c1 [Compound 2217] ({CH2CO}-[Phe(3,4-F2)]Y(Carboxymethyl)D[Phe(3-Me)]Y(Carboxymethyl)[Bip]Y(Carboxymethyl)[Orn][dL][Dab][Cha][Val(3-OH)]SC[Dab][Aun]-OH; thioether N-14)",0.0279
11,Cc1cccc(C[C@@H]2NC(=O)[C@H](CC(=O)O)NC(=O)[C@H](Cc3ccc(OCC(=O)O)cc3)NC(=O)[C@H](Cc3ccc(C(N)=O)cc3)NC(=O)CSC[C@@H](C(=O)N[C@@H](CCN)C(=O)NCCCCCCCCCCC(=O)O)NC(=O)[C@H](CO)NC(=O)[C@H](C(C)(C)O)NC(=O)[C@H](CC3CCCCC3)NC(=O)[C@H](CCN)NC(=O)[C@@H](CC(C)C)NC(=O)[C@H](CCCN)NC(=O)[C@H](Cc3ccc(OCC(=O)O)cc3)NC(=O)[C@H](Cc3ccc(-c4ccccc4)cc3)NC(=O)[C@H](Cc3ccc(OCC(=O)O)cc3)NC2=O)c1 [Compound 2218] ({CH2CO}-[Phe(4-CONH2)]Y(Carboxymethyl)D[Phe(3-Me)]Y(Carboxymethyl)[Bip]Y(Carboxymethyl)[Orn][dL][Dab][Cha][Val(3-OH)]SC[Dab][Aun]-OH; thioether N-14),0.0071
12,Cc1cccc(C[C@@H]2NC(=O)[C@H](CC(=O)O)NC(=O)[C@H](Cc3ccc(OCC(=O)O)cc3)NC(=O)[C@H](Cc3cnc[nH]3)NC(=O)CSC[C@@H](C(=O)N[C@@H](CCN)C(=O)NCCCCCCCCCCC(=O)O)NC(=O)[C@H](CO)NC(=O)[C@H](C(C)(C)O)NC(=O)[C@H](CC3CCCCC3)NC(=O)[C@H](CCN)NC(=O)[C@@H](CC(C)C)NC(=O)[C@H](CCCN)NC(=O)[C@H](Cc3ccc(OCC(=O)O)cc3)NC(=O)[C@H](Cc3ccc(-c4ccccc4)cc3)NC(=O)[C@H](Cc3ccc(OCC(=O)O)cc3)NC2=O)c1 [Compound 2219] ({CH2CO}-HY(Carboxymethyl)D[Phe(3-Me)]Y(Carboxymethyl)[Bip]Y(Carboxymethyl)[Orn][dL][Dab][Cha][Val(3-OH)]SC[Dab][Aun]-OH; thioether N-14),0.0047

# Reference: patent US20260022142A1, “MACROCYCLIC IMMUNOMODULATORS” (Bristol-Myers Squibb Company, priority 2022, published 2026)
